Converted amounts (≈) assume the structure as drawn. Like-named read-outs stand apart in the source and are kept apart here.
Key:
[1] = system: Trichophyton interdigitale ATCC 9533; test: microbe, parasite or virus in culture; type: cell-based
[2] = system: Candida krusei ATCC 6258; test: microbe, parasite or virus in culture; type: cell-based; settings: Pichia kudriavzevii
[3] = system: Candida tropicalis ATCC 750; test: microbe, parasite or virus in culture; type: cell-based
[4] = system: Candida albicans ATCC 24443; test: microbe, parasite or virus in culture; type: cell-based
[5] = target: AChE from electric eel (EeAChE) (Electrophorus electricus, UniProt O42275); test: biochemical; type: biochemical
[6] = system: four Gram-positive and four Gram-negative bacterial strains; test: Antibacterial microdilution broth method, whole panel; type: cell-based; settings: read-out: MIC, all bacterial strains tested
[7] = system: Candida parapsilosis ATCC 22019; test: microbe, parasite or virus in culture; type: cell-based; settings: Lodderomyces parapsilosis
[8] = target: BuChE from equine serum (EqBuChE) (Equus caballus, UniProt P81908); test: biochemical; settings: read-out: IC50 BuChE
[9] = system: eight human pathogenic fungi; test: Antifungal microdilution broth method, whole panel; type: cell-based; settings: not reported in Table 2, read-out: MIC, all fungal strains tested
[10] = system: methicillin-resistant Staphylococcus aureus ATCC 43300; test: Antibacterial microdilution broth method (EUCAST); type: cell-based; settings: ATCC 43300 / MRSA
[11] = system: Pseudomonas aeruginosa ATCC 27853; test: Antibacterial microdilution broth method (EUCAST); type: cell-based
[12] = system: Escherichia coli ATCC 25922; test: Antibacterial microdilution broth method (EUCAST); type: cell-based
[13] = system: Acinetobacter baumannii ATCC 19606; test: Antibacterial microdilution broth method (EUCAST); type: cell-based
[14] = system: Klebsiella pneumoniae ATCC 10031; settings: for MIC KP 24 h: 24 h incubation; for MIC KP 48 h: 48 h incubation
[15] = system: Staphylococcus epidermidis ATCC 12228; test: Antibacterial microdilution broth method (EUCAST); type: cell-based
[16] = system: Enterococcus faecalis ATCC 29212; test: Antibacterial microdilution broth method (EUCAST); type: cell-based
[17] = system: Staphylococcus aureus ATCC 29213; test: Antibacterial microdilution broth method (EUCAST); type: cell-based
[18] = system: HepG2 cells
Experimental: Cytotoxicity of the tested compounds was measured using the standard hepatic cell line HepG2. The used CellTiter 96® assay is based on the reduction of tetrazolium dye (MTS) in living cells to formazan, which is then determined colorimetrically.

[19] = ATCC9533, 72 h, read-out: MIC TI 72 h
[20] = ATCC9533, 120 h, read-out: MIC TI 120 h
[21] = ATCC6258, 24 h, read-out: MIC CK 24 h
[22] = ATCC6258, 48 h, read-out: MIC CK 48 h
[23] = ATCC750, 24 h, read-out: MIC CT 24 h
[24] = ATCC750, 48 h, read-out: MIC CT 48 h
[25] = ATCC24443, 24 h, read-out: MIC CA 24 h
[26] = ATCC24443, 48 h, read-out: MIC CA 48 h
[27] = mean ± SD, n = three independent experiments, ATCh 40 µM, read-out: IC50 AChE
[28] = ATCC22019, 24 h, read-out: MIC CP 24 h
[29] = ATCC22019, 48 h, read-out: MIC CP 48 h
[30] = mean ± SD, n = three independent experiments, BTCh 40 µM
[31] = ATCC27853, 24 h, read-out: MIC PA 24 h
[32] = ATCC27853, 48 h, read-out: MIC PA 48 h
[33] = ATCC25922, 24 h, read-out: MIC EC 24 h
[34] = ATCC25922, 48 h, read-out: MIC EC 48 h
[35] = ATCC19606, 24 h, read-out: MIC ACI 24 h
[36] = ATCC19606, 48 h, read-out: MIC ACI 48 h
[37] = ATCC12228, 24 h, read-out: MIC SE 24 h
[38] = ATCC12228, 48 h, read-out: MIC SE 48 h
[39] = ATCC29212, 24 h, read-out: MIC EF 24 h
[40] = ATCC29212, 48 h, read-out: MIC EF 48 h
[41] = ATCC29213, 24 h, read-out: MIC SA 24 h
[42] = ATCC29213, 48 h, read-out: MIC SA 48 h

Chain of AChE from electric eel (EeAChE) (O42275 24-633): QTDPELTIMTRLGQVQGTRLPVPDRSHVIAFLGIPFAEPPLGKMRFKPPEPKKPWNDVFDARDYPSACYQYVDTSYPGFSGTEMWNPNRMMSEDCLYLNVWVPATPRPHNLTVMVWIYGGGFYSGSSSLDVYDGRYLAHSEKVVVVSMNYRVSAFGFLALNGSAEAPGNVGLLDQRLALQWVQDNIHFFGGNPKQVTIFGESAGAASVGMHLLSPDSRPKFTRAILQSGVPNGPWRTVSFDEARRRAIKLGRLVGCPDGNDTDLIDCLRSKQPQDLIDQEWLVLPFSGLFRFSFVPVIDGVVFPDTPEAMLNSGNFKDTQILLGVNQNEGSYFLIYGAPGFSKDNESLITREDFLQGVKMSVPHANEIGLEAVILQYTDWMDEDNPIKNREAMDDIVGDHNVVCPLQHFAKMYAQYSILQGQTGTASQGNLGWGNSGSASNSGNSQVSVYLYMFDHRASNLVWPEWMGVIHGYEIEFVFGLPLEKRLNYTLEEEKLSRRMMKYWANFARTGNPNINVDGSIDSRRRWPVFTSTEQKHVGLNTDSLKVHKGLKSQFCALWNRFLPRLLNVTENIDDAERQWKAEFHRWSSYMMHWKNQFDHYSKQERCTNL
Chain of BuChE from equine serum (EqBuChE) (P81908 whole entry): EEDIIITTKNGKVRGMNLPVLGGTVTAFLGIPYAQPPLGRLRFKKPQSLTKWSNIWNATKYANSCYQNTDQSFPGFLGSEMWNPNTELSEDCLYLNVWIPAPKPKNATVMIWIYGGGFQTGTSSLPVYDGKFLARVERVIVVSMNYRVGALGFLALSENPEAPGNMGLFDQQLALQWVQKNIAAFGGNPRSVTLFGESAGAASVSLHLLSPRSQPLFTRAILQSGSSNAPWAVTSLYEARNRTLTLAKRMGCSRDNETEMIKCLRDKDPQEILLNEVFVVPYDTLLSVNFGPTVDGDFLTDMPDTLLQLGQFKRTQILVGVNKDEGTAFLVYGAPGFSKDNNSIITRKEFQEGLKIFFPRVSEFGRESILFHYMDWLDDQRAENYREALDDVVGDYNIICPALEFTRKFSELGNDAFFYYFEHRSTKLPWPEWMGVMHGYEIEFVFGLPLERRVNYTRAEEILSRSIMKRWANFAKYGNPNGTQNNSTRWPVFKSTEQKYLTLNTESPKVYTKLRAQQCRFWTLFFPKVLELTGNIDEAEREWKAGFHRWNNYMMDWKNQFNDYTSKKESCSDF

SMILES: N=C(N)NNCc1cc(I)cc(I)c1O [Compound 2d, 2-(2-Hydroxy-3,5-diiodobenzyl)hydrazine-1-carboximidamide]
- MIC [1, 19]: 62.5 µM (≈ 27 µg/mL)
- MIC [1, 20]: 62.5 µM (≈ 27 µg/mL)
- MIC [2, 21]: > 125 µM
- MIC [2, 22]: > 125 µM
- MIC [3, 23]: > 125 µM
- MIC [3, 24]: > 125 µM
- MIC [4, 25]: > 125 µM
- MIC [4, 26]: > 125 µM
- Selectivity AChE/BuChE [5]: 1.10
- IC50 [5, 27]: 45.7 ± 1.7 µM
- MIC [6]: ≥ 500 µM
- MIC [7, 28]: > 125 µM
- MIC [7, 29]: > 125 µM
- IC50 [8, 30]: 41.5 ± 1.45 µM

SMILES: [H]/N=C(\NN=Cc1cc(I)cc(I)c1O)N[N+](=O)[O-] [Compound 2f, (E)-2-(2-Hydroxy-3,5-diiodobenzylidene)-N-nitrohydrazine-1-carboximidamide]
- MIC [9]: ≥ 500 µM
- IC50 [5, 27]: 34.78 ± 0.04 µM
- MIC [6]: ≥ 500 µM
- IC50 [8, 30]: > 500 µM

SMILES: N=C(N/N=C/c1cc(I)cc(I)c1O)N/N=C/c1cc(I)cc(I)c1O [Compound 2g, Bis[2-((E)-2-hydroxy-3,5-diiodobenzylidene)hydrazineyl]methaniminium chloride]
- MIC [1, 19]: 250 µM
- MIC [1, 20]: 250 µM
- MIC [2, 21]: > 500 µM
- MIC [2, 22]: > 500 µM
- MIC [3, 23]: > 500 µM
- MIC [3, 24]: > 500 µM
- MIC [4, 25]: > 500 µM
- MIC [4, 26]: > 500 µM
- IC50 [5]: 54.9 ± 1.72 µM
- MIC [6]: ≥ 500 µM
- MIC [7, 28]: > 500 µM
- MIC [7, 29]: > 500 µM
- IC50 [8]: 8.26 ± 0.21 µM

SMILES: NC(=O)N/N=C/c1cc(I)cc(I)c1O [Compound 2h, (E)-2-(2-Hydroxy-3,5-diiodobenzylidene)hydrazine-1-carboxamide]
- MIC [9]: ≥ 500 µM
- MIC ([10]; 24 h, read-out: MIC MRSA 24 h): 500 µM (≈ 215 µg/mL)
- MIC ([10]; 48 h, read-out: MIC MRSA 48 h): 500 µM (≈ 215 µg/mL)
- MIC [11, 31]: > 500 µM
- MIC [11, 32]: > 500 µM
- MIC [12, 33]: > 500 µM
- MIC [12, 34]: > 500 µM
- MIC [13, 35]: > 500 µM
- MIC [13, 36]: > 500 µM
- Selectivity AChE/BuChE [5]: 0.88
- IC50 [5, 27]: 30.7 ± 0.33 µM
- MIC KP 24 h [14]: >500 µM
- MIC KP 48 h [14]: >500 µM
- MIC [15, 37]: 125 µM (≈ 53.9 µg/mL)
- MIC [15, 38]: 125 µM (≈ 53.9 µg/mL)
- MIC [16, 39]: > 500 µM
- MIC [16, 40]: > 500 µM
- MIC [17, 41]: 250 µM (≈ 108 µg/mL)
- MIC [17, 42]: 250 µM (≈ 108 µg/mL)
- IC50 [8, 30]: 34.7 ± 0.35 µM

SMILES: NC(=S)N/N=C/c1cc(I)cc(I)c1O [Compound 2i, (E)-2-(2-Hydroxy-3,5-diiodobenzylidene)hydrazine-1-carbothioamide]
- MIC [9]: ≥ 500 µM
- MIC ([10]; 24 h, read-out: MIC MRSA 24 h): 500 µM (≈ 224 µg/mL)
- MIC ([10]; 48 h, read-out: MIC MRSA 48 h): 500 µM (≈ 224 µg/mL)
- MIC [11, 31]: > 500 µM
- MIC [11, 32]: > 500 µM
- MIC [12, 33]: > 500 µM
- MIC [12, 34]: > 500 µM
- MIC [13, 35]: > 500 µM
- MIC [13, 36]: > 500 µM
- Selectivity AChE/BuChE [5]: 0.61
- IC50 [5, 27]: 52.22 ± 0.4 µM
- MIC KP 24 h [14]: >500 µM
- MIC KP 48 h [14]: >500 µM
- MIC [15, 37]: 250 µM (≈ 112 µg/mL)
- MIC [15, 38]: 250 µM (≈ 112 µg/mL)
- MIC [16, 39]: 250 µM (≈ 112 µg/mL)
- MIC [16, 40]: 250 µM (≈ 112 µg/mL)
- MIC [17, 41]: 500 µM (≈ 224 µg/mL)
- MIC [17, 42]: 500 µM (≈ 224 µg/mL)
- IC50 [8, 30]: 86.24 ± 0.39 µM

SMILES: N=C(N)NN [aminoguanidine, hydrazinecarboximidamide, reference compound]
- Cytotoxicity in HepG2 in words [18]: no significant cytotoxicity
- Selectivity AChE/BuChE [5]: 0.23
- IC50 ([5]; read-out: IC50 AChE): 75.14 ± 0.74 µM
- IC50 [8]: 327 ± 18 µM

SMILES: NNC(N)=O [semicarbazide, reference compound]
- Cytotoxicity in HepG2 in words [18]: no significant cytotoxicity
- Selectivity AChE/BuChE [5]: 0.13
- IC50 ([5]; read-out: IC50 AChE): 48.1 ± 0.84 µM
- IC50 [8]: 365 ± 16.8 µM

SMILES: NNC(N)=S [thiosemicarbazide, reference compound]
- Cytotoxicity in HepG2 in words [18]: no significant cytotoxicity
- Selectivity AChE/BuChE [5]: 0.14
- IC50 ([5]; read-out: IC50 AChE): 46.1 ± 1.1 µM
- IC50 [8]: 327.8 ± 3.22 µM

From article PMC8704707 (Pharmaceuticals, 2021)
